A word on the pEC50: it is the EC50 on a negative log10 scale, so that one unit is a factor of ten. A higher pEC50 goes with a small EC50.

The record followed here is patent US11207420B2, “Cytotoxin and conjugate, uses of same and preparation method therefor” (priority 2017, dated 2021).

One test concerns MDA-MB-468. Description: Inhibitory effect of small molecule toxins on cell proliferation in vitro (CCK8). Format: cell-based. Particulars: MDA-MB-468, 7500 cells/well, 4 days. The procedure:
(§1) First, tumor cells MDA-MB-468 and NCI-H322M were cultured; the small molecule toxins of the present invention, maytansin derivative (DM1, Nanjing Lianning), monomethyl auristatin F (MMAF, Nanjing Lianning) were co-cultured respectively with the tumor cells. Then, CCK8 reagent (Dongren Chemical Technology Co., Ltd.) was added, followed by detection with the microplate reader (manufacturer: Molecular Devices, model: SpectraMax M2) (wavelength: 450 nm). The activity of dehydrogenase in mitochondria was detected, to evaluate the inhibitory effect of small molecule toxins on cell proliferation.
(§2) Test of cell activity in vitro: toxins were diluted (10 concentration gradients) with the corresponding test medium (containing 2% FBS). Tumor cells were trypsinized by a conventional method using trypsin, and cells were collected by tube and resuspended in the corresponding test medium (containing 2% FBS). The diluted toxins were added to a 96-well plate, to which were added the cells. Thereafter, 20 μL of CCK8 reagent was added to each well, and reaction was carried out for 4 hours, followed by detection with the microplate reader (wavelength: 450 nm).

Another test deals with NCI-H322M. The test is described as above. The format is cell-based. Particulars: 5000 cells/well, 3 days, starting at 20000 nM, 5-fold dilution. The procedure: as §1, §2
The mark [1] stands for this setting: Homo sapiens, MDA-MB-468, 96 h, Table 3, starting at 10 nM, 2-fold dilution.
[2] abbreviates: Table 2, 3-fold dilution starting at 10000 nM (T001: 500 nM).

pEC50: −log10 of the molar value. Square brackets hold non-standard residues; d marks the D form. Peptide text beside a SMILES is read from it. * marks the point of attachment. ξ: configuration not given here. Dolaproine = CO[C@@H]([C@@H]1CCCN1)[C@@H](C)C(=O)O; Dil = CC[C@H](C)[C@H](NC)[C@@H](CC(=O)O)OC; d(β3hF) = N[C@@H](CC(=O)O)Cc1ccccc1; NH(4-aminobenzyl) = Nc1ccc(CN*)cc1; NMe2Val = CC(C)[C@@H](C(=O)*)N(C)C; β3hF = N[C@H](CC(=O)O)Cc1ccccc1; NMeV = CN[C@H](C(=O)O)C(C)C; ξF = NC(Cc1ccccc1)C(=O)O; X1 = CN(Cc1ccc(N)cc1)*

In the test on MDA-MB-468 (setting [1]), `CC[C@H](C)[C@@H]([C@@H](CC(=O)N1CCC[C@H]1[C@H](OC)[C@@H](C)C(=O)N[C@@H](CC(C)C)C(=O)NCc1ccc(N)cc1)OC)N(C)C(=O)[C@@H](NC(=O)[C@H](C(C)C)N(C)C)C(C)C` [Example T018] (NMe2Val-V[Dil][Dolaproine]L-{NH(4-aminobenzyl)}) gave a pEC50 of 8.63. On the same count and under the same terms, under `CC[C@H](C)[C@@H]([C@@H](CC(=O)N1CCC[C@H]1[C@H](OC)[C@@H](C)C(=O)N[C@H](Cc1ccccc1)C(=O)NCc1ccc(N)cc1)OC)N(C)C(=O)[C@@H](NC(=O)[C@H](C(C)C)N(C)C)C(C)C` [Example T012] (NMe2Val-V[Dil][Dolaproine][dF]-{NH(4-aminobenzyl)}) stands 8.79; under `CC[C@H](C)[C@@H]([C@@H](CC(=O)N1CCC[C@H]1[C@H](OC)[C@@H](C)C(=O)N[C@@H](Cc1ccccc1)C(=O)N(C)Cc1ccc(N)cc1)OC)N(C)C(=O)[C@@H](NC(=O)[C@H](C(C)C)N(C)C)C(C)C` [Example T003, (S)—N-((3R,4S,5 S)-1-((S)-2-((1R,2R)-3-(((S)-1-((4-aminobenzyl)(methyl)amino)-1-oxo-3-phenylprop-2-yl)amino)-1-methoxy-2-methyl-3-propionyl)pyrrolidin-1-yl)-3-methoxy-5-methyl-1-heptanoyl-4-yl)-2-((S)-2-(dimethylamino)-3-methylbutyramido)-N,3-dimethylbutyramide] (NMe2Val-V[Dil][Dolaproine]F-X1), 8.49; under `CC[C@H](C)[C@@H]([C@@H](CC(=O)N1CCC[C@H]1[C@H](OC)[C@@H](C)C(=O)N[C@H](C(=O)NCc1ccc(N)cc1)C(C)C)OC)N(C)C(=O)[C@@H](NC(=O)[C@H](C(C)C)N(C)C)C(C)C` [Example T019] (NMe2Val-V[Dil][Dolaproine]V-{NH(4-aminobenzyl)}), 8.94. On to `COc1cc2cc(c1Cl)N(C)C(=O)C[C@H](OC(=O)[C@H](C)N(C)C(=O)CCS)[C@]1(C)O[C@H]1[C@H](C)[C@@H]1C[C@@](O)(NC(=O)O1)[C@H](OC)/C=C/C=C(\C)C2` [maytansin derivative (DM1), reference compound], for which the values for the negative logarithm of the EC50 (pEC50) in the test on MDA-MB-468 (setting [2]) and with NCI-H322M were 8.12 and 7.41, respectively. On to `CC[C@H](C)[C@@H]([C@@H](CC(=O)N1CCC[C@H]1[C@H](OC)[C@@H](C)C(=O)N[C@H](CC(=O)NCc1ccc(N)cc1)Cc1ccccc1)OC)N(C)C(=O)[C@@H](NC(=O)[C@H](C(C)C)N(C)C)C(C)C` [Example T013, (S)—N-((3R,4S,5 S)-1-((S)-2-((1R,2R)-3-(((S)-4-((4-aminobenzyl)amino)-4-oxo-1-phenylbut-2-yl)amino)-1-methoxy-2-methyl-3-oxopropyl)pyrrolidin-1-yl)-3-methoxy-5-methyl-1-oxoheptyl-4-yl)-2-((S)-2-(dimethylamino)-3-methylbutyramido)-N,3-dimethylbutyramide] (NMe2Val-V[Dil][Dolaproine][β3hF]-{NH(4-aminobenzyl)}), for which the pEC50 with MDA-MB-468 (setting [1]) is 9.38.

In turn, `CC[C@H](C)[C@@H]([C@@H](CC(=O)N1CCC[C@H]1[C@H](OC)[C@@H](C)C(=O)NCC(=O)NCc1ccc(N)cc1)OC)N(C)C(=O)[C@@H](NC(=O)[C@H](C(C)C)N(C)C)C(C)C` [Example T015, (S)—N-((3R,4S,5 S)-1-((S)-2-((1R,2R)-3-((2-((4-aminobenzyl)amino)-2-oxoethyl)amino)-1-methoxy-2-methyl-3-oxopropyl)pyrrolidin-1-yl)-3-methoxy-5-methyl-1-oxoheptyl-4-yl)-2-((S)-2-(dimethylamino)-3-methylbutyramido)-N,3-dimethylbutyramide] (NMe2Val-V[Dil][Dolaproine]G-{NH(4-aminobenzyl)}) showed a pEC50 in the test on MDA-MB-468 (setting [1]) of 8.13. Turning to `CC[C@H](C)[C@@H]([C@@H](CC(=O)N1CCC[C@H]1[C@H](OC)[C@@H](C)C(=O)N[C@@H](Cc1ccccc1)C(=O)O)OC)N(C)C(=O)[C@@H](NC(=O)[C@@H](NC)C(C)C)C(C)C` [monomethyl auristatin F (MMAF), monomethyl auristatin F, reference compound] (H-[NMeV]V[Dil][Dolaproine]F-OH), the pEC50 with MDA-MB-468 (setting [2]) is 7.01; with NCI-H322M it was 6.93. `CC[C@H](C)[C@@H]([C@@H](CC(=O)N1CCC[C@H]1[C@H](OC)[C@@H](C)C(=O)NC(Cc1ccccc1)C(=O)NCc1ccc(N)cc1)OC)N(C)C(=O)[C@@H](NC(=O)[C@H](C(C)C)N(C)C)C(C)C` (stereo partly drawn) [Example T001, (2S)—N-((3R,4S,5 S)-1-((2S)-2-((1R,2R)-3-((1-((4-aminobenzyl)amino)-1-oxo-3-phenylprop-2-yl)amino)-1-methoxy-2-methyl-3-propionyl)pyrrolidin-1-yl)-3-methoxy-5-methyl-1-heptanoyl-4-yl)-2-((S)-2-(dimethylamino)-3-methylbutyramido)-N,3-dimethylbutyramide] (NMe2Val-V[Dil][Dolaproine][ξF]-{NH(4-aminobenzyl)}): the pEC50 with MDA-MB-468 (Homo sapiens, MDA-MB-468, 96 h, Table 2, 3-fold dilution starting at 10000 nM (T001: 500 nM)) was 9.27; with MDA-MB-468 (setting [1]), 8.95; in the test with NCI-H322M (Homo sapiens, 72 h) it was 8.70. In the test with MDA-MB-468 (setting [1]), `CC[C@H](C)[C@@H]([C@@H](CC(=O)N1CCC[C@H]1[C@H](OC)[C@@H](C)C(=O)N[C@H](Cc1ccccc1)C(=O)N(C)Cc1ccc(N)cc1)OC)N(C)C(=O)[C@@H](NC(=O)[C@H](C(C)C)N(C)C)C(C)C` [Example T002, (S)—N-((3R,4 S,5 S)-1-((S)-2-((1R,2R)-3-(((R)-1-((4-aminobenzyl)(methyl)amino)-1-oxo-3-phenylprop-2-yl)amino)-1-methoxy-2-methyl-3-propionyl)pyrrolidin-1-yl)-3-methoxy-5-methyl-1-heptanoyl-4-yl)-2-((S)-2-(dimethylamino)-3-methylbutyramido)-N,3-dimethylbutyramide] (NMe2Val-V[Dil][Dolaproine][dF]-X1) gave a pEC50 of under 8.00. The same measure, in the same setting: as for `CC[C@H](C)[C@@H]([C@@H](CC(=O)N1CCC[C@H]1[C@H](OC)[C@@H](C)C(=O)N[C@@H](C)C(=O)NCc1ccc(N)cc1)OC)N(C)C(=O)[C@@H](NC(=O)[C@H](C(C)C)N(C)C)C(C)C` [Example T016] (NMe2Val-V[Dil][Dolaproine]A-{NH(4-aminobenzyl)}), the figure is 8.24; as for `CC[C@H](C)[C@@H]([C@@H](CC(=O)N1CCC[C@H]1[C@H](OC)[C@@H](C)C(=O)N[C@@H](Cc1ccccc1)C(=O)NCc1ccc(N)cc1)OC)N(C)C(=O)[C@@H](NC(=O)[C@H](C(C)C)N(C)C)C(C)C` [Example T011] (NMe2Val-V[Dil][Dolaproine]F-{NH(4-aminobenzyl)}), 9.68.

On to `CC[C@H](C)[C@@H]([C@@H](CC(=O)N1CCC[C@H]1[C@H](OC)[C@@H](C)C(=O)N[C@@H](CC(=O)NCc1ccc(N)cc1)Cc1ccccc1)OC)N(C)C(=O)[C@@H](NC(=O)[C@H](C(C)C)N(C)C)C(C)C` [Example T014, (S)—N-((3R,4S,5 S)-1-((S)-2-((1R,2R)-3-(((R)-4-((4-aminobenzyl)amino)-4-oxo-1-phenylbut-2-yl)amino)-1-methoxy-2-methyl-3-oxopropyl)pyrrolidin-1-yl)-3-methoxy-5-methyl-1-oxoheptyl-4-yl)-2-((S)-2-(dimethylamino)-3-methylbutyramido)-N,3-dimethylbutyramide] (NMe2Val-V[Dil][Dolaproine][d(β3hF)]-{NH(4-aminobenzyl)}), for which the pEC50 with MDA-MB-468 (setting [1]) is 8.91.
